Data as given in PubChem BioAssay AID1259407 (Chemical Carcinogenesis Research Information System (CCRIS), 2018).
Calls of active or inactive are those of the source. How the calls were made is not given here.

System: CCRIS mutagenicity, Ames/micronucleus/aberration tests
Test: CCRIS mutagenicity studies
[1] = Test System: AMES SALMONELLA TYPHIMURIUM, Strain/Indicator: TA97, Metabolic Activation: NONE, Method: PREINCUBATION
[2] = Test System: AMES SALMONELLA TYPHIMURIUM, Strain/Indicator: TA98, Metabolic Activation: HAMSTER, LIVER, S-9, AROCLOR 1254 (10%), Method: PREINCUBATION
[3] = Test System: AMES SALMONELLA TYPHIMURIUM, Strain/Indicator: TA98, Metabolic Activation: NONE, Method: PREINCUBATION
[4] = Test System: AMES SALMONELLA TYPHIMURIUM, Strain/Indicator: TA98, Metabolic Activation: RAT, LIVER, S-9, AROCLOR 1254 (10%), Method: PREINCUBATION
[5] = Test System: AMES SALMONELLA TYPHIMURIUM, Strain/Indicator: TA100, Metabolic Activation: NONE, Method: PREINCUBATION
[6] = Test System: AMES SALMONELLA TYPHIMURIUM, Strain/Indicator: TA100, Metabolic Activation: RAT, LIVER, S-9, AROCLOR 1254 (10%), Method: PREINCUBATION
[7] = Test System: AMES SALMONELLA TYPHIMURIUM, Strain/Indicator: TA1535, Metabolic Activation: HAMSTER, LIVER, S-9, AROCLOR 1254 (10%), Method: PREINCUBATION
[8] = Test System: AMES SALMONELLA TYPHIMURIUM, Strain/Indicator: TA1535, Metabolic Activation: NONE, Method: PREINCUBATION
[9] = Test System: AMES SALMONELLA TYPHIMURIUM, Strain/Indicator: TA1535, Metabolic Activation: RAT, LIVER, S-9, AROCLOR 1254 (10%), Method: PREINCUBATION
[10] = Test System: AMES SALMONELLA TYPHIMURIUM, Strain/Indicator: TA98, Metabolic Activation: NONE, Method: STANDARD PLATE
[11] = Test System: AMES SALMONELLA TYPHIMURIUM, Strain/Indicator: TA98, Metabolic Activation: RAT, LIVER, S-9, AROCLOR 1254, Method: STANDARD PLATE

SMILES: CN(Cc1cccc(C(F)(F)F)c1)N=O
- mutagenic call (Test System: AMES SALMONELLA TYPHIMURIUM, Strain/Indicator: TA1535, Metabolic Activation: HAMSTER, LIVER, S-9, AROCLOR 1254, Method: STANDARD PLATE): active; positive
- mutagenic call (Test System: AMES SALMONELLA TYPHIMURIUM, Strain/Indicator: TA1535, Metabolic Activation: NONE, Method: STANDARD PLATE): inactive; negative

SMILES: C=C1C/C(=C/C)C(=O)O[C@@H]2CCN3CC=C(COC(=O)[C@]1(C)O)[C@H]23
- mutagenic call (Test System: AMES SALMONELLA TYPHIMURIUM, Strain/Indicator: TA97, Metabolic Activation: HAMSTER, LIVER, S-9, AROCLOR 1254 (5, 10 OR 30%), Method: PREINCUBATION): inactive; negative
- mutagenic call [1]: inactive; negative
- mutagenic call (Test System: AMES SALMONELLA TYPHIMURIUM, Strain/Indicator: TA97, Metabolic Activation: RAT, LIVER, S-9, AROCLOR 1254 (5, 10 OR 30%), Method: PREINCUBATION): inactive; negative
- mutagenic call [2]: inactive; negative
- mutagenic call [3]: inactive; negative
- mutagenic call [4]: inactive; negative
- mutagenic call (Test System: AMES SALMONELLA TYPHIMURIUM, Strain/Indicator: TA100, Metabolic Activation: HAMSTER, LIVER, S-9, AROCLOR 1254 (5%), Method: PREINCUBATION): inactive; negative
- mutagenic call (Test System: AMES SALMONELLA TYPHIMURIUM, Strain/Indicator: TA100, Metabolic Activation: HAMSTER, LIVER, S-9, AROCLOR 1254 (10 OR 30%), Method: PREINCUBATION): active; positive
- mutagenic call (Test System: AMES SALMONELLA TYPHIMURIUM, Strain/Indicator: TA100, Metabolic Activation: HAMSTER, LIVER, S-9, PCB, Method: PREINCUBATION): inactive; negative
- mutagenic call [5]: inactive; negative
- mutagenic call (Test System: AMES SALMONELLA TYPHIMURIUM, Strain/Indicator: TA100, Metabolic Activation: RAT, LIVER, S-9, AROCLOR 1254 (5 OR 30%), Method: PREINCUBATION): inactive; negative
- mutagenic call [6]: inactive; negative
- mutagenic call (Test System: AMES SALMONELLA TYPHIMURIUM, Strain/Indicator: TA100, Metabolic Activation: RAT, LIVER, S-9, PCB, Method: PREINCUBATION): inactive; negative
- mutagenic call (Test System: AMES SALMONELLA TYPHIMURIUM, Strain/Indicator: TA100, Metabolic Activation: RAT, LIVER, S-9, SODIUM PHENOBARBITAL AND BETA-NAPHTHOFLAVONE, Method: PREINCUBATION): inactive; negative
- mutagenic call [7]: inactive; negative
- mutagenic call [8]: inactive; negative
- mutagenic call [9]: inactive; negative
- mutagenic call (Test System: UDS HAMSTER HEPATOCYTES, Strain/Indicator: THY INCORP, Metabolic Activation: NONE, Method: AUTORADIOGRAPHY): active; positive
- mutagenic call (Test System: UDS MOUSE HEPATOCYTES, Strain/Indicator: THY INCORP, Metabolic Activation: NONE, Method: AUTORADIOGRAPHY): active; positive
- mutagenic call (Test System: UDS RAT HEPATOCYTES, Strain/Indicator: THY INCORP, Metabolic Activation: NONE, Method: AUTORADIOGRAPHY): active; positive

SMILES: O=C1CCC(=O)N1c1cc(Cl)cc(Cl)c1
- mutagenic call [10]: inactive; negative
- mutagenic call [11]: inactive; negative
- mutagenic call (Test System: AMES SALMONELLA TYPHIMURIUM, Strain/Indicator: TA100, Metabolic Activation: NONE, Method: STANDARD PLATE): inactive; negative
- mutagenic call (Test System: AMES SALMONELLA TYPHIMURIUM, Strain/Indicator: TA100, Metabolic Activation: RAT, LIVER, S-9, AROCLOR 1254, Method: STANDARD PLATE): inactive; negative

SMILES: COc1cc([N+](=O)[O-])ccc1NC(C)=O
- mutagenic call [10]: active; positive
- mutagenic call [11]: inactive; negative

SMILES: Oc1c(Cl)c(Cl)cc(Cl)c1Cl
- mutagenic call (End Point: IN VITRO CHROMOSOMAL ABERRATIONS, Test System: CHINESE HAMSTER LUNG CELLS (CHL), Metabolic Activation: NONE): inactive; negative
- mutagenic call (End Point: IN VITRO CHROMOSOMAL ABERRATIONS, Test System: CHINESE HAMSTER LUNG CELLS (CHL), Metabolic Activation: RAT, LIVER, S-9, KC-400): active; positive (structural changes)
- mutagenic call (End Point: IN VITRO CHROMOSOMAL ABERRATIONS, Test System: CHINESE HAMSTER OVARY CELLS (CHO), Metabolic Activation: NONE): inactive; negative
- mutagenic call (End Point: IN VITRO CHROMOSOMAL ABERRATIONS, Test System: CHINESE HAMSTER OVARY CELLS (CHO), Metabolic Activation: RAT, LIVER, S-9, AROCLOR 1254): active; positive (structural changes)
- mutagenic call (Test System: AMES SALMONELLA TYPHIMURIUM, Strain/Indicator: TA97, Metabolic Activation: HAMSTER, LIVER, S-9, AROCLOR 1254 (10%), Method: PREINCUBATION): inactive; negative
- mutagenic call (Test System: AMES SALMONELLA TYPHIMURIUM, Strain/Indicator: TA97, Metabolic Activation: HAMSTER, LIVER, S-9, AROCLOR 1254 (30%), Method: PREINCUBATION): inactive; negative
- mutagenic call [1]: inactive; negative
- mutagenic call (Test System: AMES SALMONELLA TYPHIMURIUM, Strain/Indicator: TA97, Metabolic Activation: RAT, LIVER, S-9, AROCLOR 1254 (10%), Method: PREINCUBATION): inactive; negative
- mutagenic call (Test System: AMES SALMONELLA TYPHIMURIUM, Strain/Indicator: TA97, Metabolic Activation: RAT, LIVER, S-9, AROCLOR 1254 (30%), Method: PREINCUBATION): inactive; negative
- mutagenic call [2]: inactive; negative
- mutagenic call (Test System: AMES SALMONELLA TYPHIMURIUM, Strain/Indicator: TA98, Metabolic Activation: HAMSTER, LIVER, S-9, AROCLOR 1254 (30%), Method: PREINCUBATION): inactive; negative
- mutagenic call [3]: inactive; negative
- mutagenic call [4]: inactive; negative
- mutagenic call (Test System: AMES SALMONELLA TYPHIMURIUM, Strain/Indicator: TA98, Metabolic Activation: RAT, LIVER, S-9, AROCLOR 1254 (30%), Method: PREINCUBATION): inactive; negative
- mutagenic call (Test System: AMES SALMONELLA TYPHIMURIUM, Strain/Indicator: TA100, Metabolic Activation: HAMSTER, LIVER, S-9, AROCLOR 1254 (10%), Method: PREINCUBATION): inactive; negative
- mutagenic call (Test System: AMES SALMONELLA TYPHIMURIUM, Strain/Indicator: TA100, Metabolic Activation: HAMSTER, LIVER, S-9, AROCLOR 1254 (30%), Method: PREINCUBATION): inactive; negative
- mutagenic call [5]: inactive; negative
- mutagenic call [6]: inactive; negative
- mutagenic call (Test System: AMES SALMONELLA TYPHIMURIUM, Strain/Indicator: TA100, Metabolic Activation: RAT, LIVER, S-9, AROCLOR 1254 (30%), Method: PREINCUBATION): inactive; negative
- mutagenic call [7]: inactive; negative
- mutagenic call (Test System: AMES SALMONELLA TYPHIMURIUM, Strain/Indicator: TA1535, Metabolic Activation: HAMSTER, LIVER, S-9, AROCLOR 1254 (30%), Method: PREINCUBATION): inactive; negative
- mutagenic call [8]: inactive; negative
- mutagenic call [9]: inactive; negative
- mutagenic call (Test System: AMES SALMONELLA TYPHIMURIUM, Strain/Indicator: TA1535, Metabolic Activation: RAT, LIVER, S-9, AROCLOR 1254 (30%), Method: PREINCUBATION): inactive; negative
